Experimental data reported in patent publication US10294247B2, “Beta-lactamase inhibitors” (VenatoRx Pharmaceuticals, Inc., priority 2014, dated 2019).

Legend:
Format in all cases: cell-based
[1] = tested on: E. coli expressing the Class A Extended Spectrum Beta-Lactamase (ESBL) CTX-M-15; assay: broth microdilution MIC assay, E. coli CTX-M-15; conditions: Escherichia coli, read-out: MIC alone
Description: (§1) To determine the ability of test compounds to potentiate the inhibition of the growth of bacterial strains that produce beta-lactamase enzymes, classic cell based broth microdilution MIC assays are employed. Six bacteria strains producing beta-lactamase enzymes are used: E. coli expressing the Class A Extended Spectrum Beta-Lactamase (ESBL) CTX-M-15, E. cloacae expressing the Class C P99, K. pneumoniae expressing the Class A carbapenemase KPC-3, P. aeruginosa expressing the Class B carbapenemase VIM-2, K. pneumoniae expressing the class A carbapenemase KPC-2 and the class B carbapenemase VIM-4, and S. aureus producing the Class A penicillinase PC-1. The assay is conducted in Cation Adjusted Mueller Hinton Broth (CAMHB, BD #212322, BD Diagnostic Systems, Sparks, Md.). Bacteria strains are grown for 3-5 hours in CAMBH broth. Test compounds are added to a microtiter plate in 2-fold serial dilutions in CAMHB in a final concentration range of 32 μg/mL to 0.25 μg/ml. An overlay of CAMHB containing a Beta-lactam is added to the compounds at a final static concentration of 4 μg/mL. […] After inoculation the plates are incubated for 16-20 hours at 37° C. then the Minimal Inhibitory Concentration (MIC) of the test compound is determined visually.

[2] = tested on: E. cloacae expressing the Class C P99; assay: broth microdilution MIC assay, E. cloacae P99; conditions: Enterobacter cloacae, read-out: MIC alone
Description: as §1

[3] = tested on: K. pneumoniae expressing the Class A carbapenemase KPC-3; assay: broth microdilution MIC assay, K. pneumoniae KPC-3; conditions: Klebsiella pneumoniae, read-out: MIC alone
Description: as §1

[4] = tested on: P. aeruginosa expressing the Class B carbapenemase VIM-2; assay: broth microdilution MIC assay, P. aeruginosa VIM-2; conditions: Pseudomonas aeruginosa, read-out: MIC alone
Description: as §1

[5] = tested on: K. pneumoniae expressing the class A carbapenemase KPC-2 and the class B carbapenemase VIM-4; assay: broth microdilution MIC assay, K. pneumoniae KPC-2 and VIM-4; conditions: Klebsiella pneumoniae; partner antibiotic alone, no inhibitor; K. pneumoniae expressing KPC-2 and VIM-4; CAMHB
Description: as §1

[6] = tested on: S. aureus producing the Class A penicillinase PC-1; assay: broth microdilution MIC assay, S. aureus PC-1; conditions: Staphylococcus aureus; partner antibiotic alone, no inhibitor; S. aureus producing Class A penicillinase PC-1; CAMHB
Description: as §1

With CC(C)(O/N=C(\C(=O)N[C@@H]1C(=O)N2C(C(=O)[O-])=C(C[n+]3ccccc3)CS[C@H]12)c1csc(N)n1)C(=O)O [Ceftazidime] the MIC [1] was > 128 µg/mL and the MIC [2] was 128 µg/mL.

C[C@@H](O)[C@H]1C(=O)N2C(C(=O)O)=C(S[C@@H]3CN[C@H](C(=O)N(C)C)C3)[C@H](C)[C@H]12 [Meropenem] was tested, and the MIC [3] was > 128 µg/mL, the MIC [4] was 16 µg/mL and the MIC [5] was 64 µg/mL.

CCN1CCN(C(=O)N[C@@H](C(=O)N[C@@H]2C(=O)N3[C@@H]2SC(C)(C)[C@@H]3C(=O)O)c2ccccc2)C(=O)C1=O [Piperacillin] showed an MIC [6] of 64 µg/mL.
